Tested on: MCF-7 breast cancer cells
Experiment: Microarray gene expression analysis (Agilent whole human genome 4 x 44K; compound vs DMSO, LIMMA log2 fold change)
Format: cell-based
[1] = MCF-7, 100nM, six hours, 1.5-fold expression change threshold

SMILES: Cn1ncc2c(N3CCOCC3)nc(-c3cccc(O)c3)nc21 [ETP-45658]
- ESCO1 log2FC (Gene 114799, cell cycle genes): 0.560
- UHRF2 log2FC (Gene 115426, cell cycle genes): 0.500
- KLHDC3 log2FC (Gene 116138, cell cycle genes): -0.048
- CNTROB log2FC (Gene 116840, cell cycle genes): -0.102
- NEDD1 log2FC (Gene 121441, cell cycle genes): 0.443
- HEXIM2 log2FC (Gene 124790, cell cycle genes): 0.577
- ARL8A log2FC (Gene 127829, cell cycle genes): 0.446
- UHMK1 log2FC (Gene 127933, cell cycle genes): -0.099
- IQGAP3 log2FC (Gene 128239, cell cycle genes): 0.155
- NUP35 log2FC (Gene 129401, cell cycle genes): -0.169
- MITD1 log2FC (Gene 129531, cell cycle genes): 0.836
- NUDT16 log2FC (Gene 131870, cell cycle genes): -0.327
- ZFP42 log2FC (Gene 132625, cell cycle genes): 0.031
- JMY log2FC (Gene 133746, cell cycle genes): 1.016
- HUS1B log2FC (Gene 135458, cell cycle genes): -0.791
- NEK7 log2FC (Gene 140609, cell cycle genes): 0.053
- CTCFL log2FC (Gene 140690, cell cycle genes): -0.021
- PSMA8 log2FC (Gene 143471, cell cycle genes): 0.068
- SESN3 log2FC (Gene 143686, cell cycle genes): 0.057
- PIWIL4 log2FC (Gene 143689, cell cycle genes): 0.405
- E2F7 log2FC (Gene 144455, cell cycle genes): -0.474
- RAD9B log2FC (Gene 144715, cell cycle genes): 0.061
- KCTD11 log2FC (Gene 147040, cell cycle genes): 0.142
- PYHIN1 log2FC (Gene 149628, cell cycle genes): -0.052
- PPP1R1C log2FC (Gene 151242, cell cycle genes): 0.132
- SGOL2 log2FC (Gene 151246, cell cycle genes): 0.811
- SGOL1 log2FC (Gene 151648, cell cycle genes): 0.489
- ROPN1B log2FC (Gene 152015, cell cycle genes): 0.058
- DAB2IP log2FC (Gene 153090, cell cycle genes): -0.220
- CDCA2 log2FC (Gene 157313, cell cycle genes): 0.547
- ESCO2 log2FC (Gene 157570, cell cycle genes): 0.730
- SASS6 log2FC (Gene 163786, cell cycle genes): 0.483
- WBP2NL log2FC (Gene 164684, cell cycle genes): -0.063
- THAP5 log2FC (Gene 168451, cell cycle genes): 0.256
- FLCN log2FC (Gene 201163, cell cycle genes): 0.968
- STRA13 log2FC (Gene 201254, cell cycle genes): -0.358
- TUBB log2FC (Gene 203068, cell cycle genes): -0.709
- REEP3 log2FC (Gene 221035, cell cycle genes): -0.240
- C6orf89 log2FC (Gene 221477, cell cycle genes): -0.508
- SPDYA log2FC (Gene 245711, cell cycle genes): -0.071
- CDC26 log2FC (Gene 246184, cell cycle genes): -0.688
- ASPM log2FC (Gene 259266, cell cycle genes): 1.100
- SLC39A5 log2FC (Gene 283375, cell cycle genes): -0.022
- GAS2L3 log2FC (Gene 283431, cell cycle genes): 0.617
- NSMCE2 log2FC (Gene 286053, cell cycle genes): 1.151
- LIN9 log2FC (Gene 286826, cell cycle genes): 1.274
- TMPRSS11A log2FC (Gene 339967, cell cycle genes): 0.046
- NUP43 log2FC (Gene 348995, cell cycle genes): 0.749
- APITD1 log2FC (Gene 378708, cell cycle genes): 0.144
- SETD8 log2FC (Gene 387893, cell cycle genes): 0.093
- PIM3 log2FC (Gene 415116, cell cycle genes): 0.693
- PIWIL3 log2FC (Gene 440822, cell cycle genes): -0.066
- expression of FOXO-dependent apoptosis genes including TNFSF10, BCL211 and FASLG (array) (MCF-7): did not significantly change
- number of induced (upregulated) genes [1]: 1,549
- number of repressed (downregulated) genes [1]: 989
- CCND1, SPRY2 and MMP9 expression (array) (MCF-7, FOXO target genes): significantly downregulated
- expression of CCNG2, KLHL24, DDIT3, CITED2 and RICTOR (array) (MCF-7, FOXO target genes): significantly upregulated
- bound FOXO sites (transcription factor enrichment analysis) (MCF-7, upregulated genes): highly significant increase
- MAD1L1 log2FC (cell cycle genes): -0.032
- ACSL5 log2FC (gene ACSL5 (51703), apoptosis genes): 0.011
- log2FC (gene ACTR1A (Gene 10121), cell cycle genes): -0.180
- ADAMTS20 log2FC (gene ADAMTS20 (80070), apoptosis genes): 0.014
- ADIPOQ log2FC (gene ADIPOQ (9370), apoptosis genes): 0.013
- ADRA1A log2FC (gene ADRA1A (148), apoptosis genes): 0.060
- AGTR2 log2FC (gene AGTR2 (186), apoptosis genes): 0.004
- log2FC AKAP8 (gene AKAP8 (Gene 10270), cell cycle genes): -0.037
- ALB log2FC (gene ALB (213), apoptosis genes): -0.050
- ALOX12 log2FC (gene ALOX12 (239), apoptosis genes): 0.083
- ALX3 log2FC (gene ALX3 (257), apoptosis genes): -0.018
- ALX4 log2FC (gene ALX4 (60529), apoptosis genes): -0.043
- log2FC (gene ANAPC13 (Gene 25847), cell cycle genes): -0.342
- ANKRD13C log2FC (gene ANKRD13C (81573), apoptosis genes): 0.077
- APBB1 log2FC (gene APBB1 (322), apoptosis genes): 0.078
- APOH log2FC (gene APOH (350), apoptosis genes): -0.009
- AQP1 log2FC (gene AQP1 (358), apoptosis genes): -0.015
- ARHGAP10 log2FC (gene ARHGAP10 (79658), apoptosis genes): -0.010
- ARHGEF6 log2FC (gene ARHGEF6 (9459), apoptosis genes): -0.041
- ARHGEF16 log2FC (gene ARHGEF16 (27237), apoptosis genes): 0.078
- ARHGEF18 log2FC (gene ARHGEF18 (23370), apoptosis genes): -0.051
- ATOH1 log2FC (gene ATOH1 (474), apoptosis genes): -0.034
- ATPIF1 log2FC (gene ATPIF1 (93974), apoptosis genes): 0.069
- log2FC (gene ATR (Gene 545), cell cycle genes): 0.346
- log2FC (gene BAD (Gene 572), cell cycle genes): 0.276
- BCL2L10 log2FC (gene BCL2L10 (10017), apoptosis genes): -0.024
- BDKRB2 log2FC (gene BDKRB2 (624), apoptosis genes): 0.060
- BIRC2 log2FC (gene BIRC2 (329), apoptosis genes): 0.082
- BIRC8 log2FC (gene BIRC8 (112401), apoptosis genes): -0.014
- BMP2 log2FC (gene BMP2 (650), apoptosis genes): -0.038
- log2FC (gene BMP4 (Gene 652), cell cycle genes): 0.407
- BMP5 log2FC (gene BMP5 (653), apoptosis genes): 0.022
- BOK log2FC (gene BOK (666), apoptosis genes): -0.021
- log2FC (gene BRE (Gene 9577), cell cycle genes): -0.322
- BTK log2FC (gene BTK (695), apoptosis genes): -0.064
- log2FC (gene BUB1B (Gene 701), cell cycle genes): 0.344
- C1QBP log2FC (gene C1QBP (708), apoptosis genes): 0.052
- C3orf38 log2FC (gene C3orf38 (285237), apoptosis genes): -0.027
- log2FC (gene CAMK2B (Gene 816), cell cycle genes): -0.123
- CAPN3 log2FC (gene CAPN3 (825), apoptosis genes): 0.007
- log2FC CAPN3 (gene CAPN3 (Gene 825), cell cycle genes): 0.007
- CARD9 log2FC (gene CARD9 (64170), apoptosis genes): -0.027
- CARD14 log2FC (gene CARD14 (79092), apoptosis genes): 0.026
- log2FC (gene CASP3 (Gene 836), cell cycle genes): 0.546
- CASP10 log2FC (gene CASP10 (843), apoptosis genes): -0.013
- CASP12 log2FC (gene CASP12 (120329), apoptosis genes): 0.004
- CCK log2FC (gene CCK (885), apoptosis genes): -0.026
- CCL19 log2FC (gene CCL19 (6363), apoptosis genes): -0.021
- log2FC (gene CCNB2 (Gene 9133), cell cycle genes): 0.253
- log2FC (gene CCNH (Gene 902), cell cycle genes): 0.426
- log2FC (gene CCNT2 (Gene 905), cell cycle genes): 0.221
- CD38 log2FC (gene CD38 (952), apoptosis genes): -0.014
- CD40LG log2FC (gene CD40LG (959), apoptosis genes): -0.031
- CD248 log2FC (gene CD248 (57124), apoptosis genes): -0.012
- log2FC (gene CDC73 (Gene 79577), cell cycle genes): 0.443
- CDH1 log2FC (gene CDH1 (999), apoptosis genes): 0.047
- log2FC CDH13 (gene CDH13 (Gene 1012), cell cycle genes): -0.017
- log2FC CDK2AP1 (gene CDK2AP1 (Gene 8099), cell cycle genes): -0.041
- CDK5 log2FC (gene CDK5 (1020), apoptosis genes): -0.089
- log2FC CDK5RAP1 (gene CDK5RAP1 (Gene 51654), cell cycle genes): 0.018
- log2FC CDKN2B (gene CDKN2B (Gene 1030), cell cycle genes): 0.013
- log2FC (gene CENPJ (Gene 55835), cell cycle genes): 0.293
- log2FC (gene CENPK (Gene 64105), cell cycle genes): 0.519
- log2FC (gene CETN3 (Gene 1070), cell cycle genes): 0.369
- log2FC (gene CHEK2 (Gene 11200), cell cycle genes): 0.312
- CHIA log2FC (gene CHIA (27159), apoptosis genes): -0.023
- CIDEA log2FC (gene CIDEA (1149), apoptosis genes): -0.026
- CLC log2FC (gene CLC (1178), apoptosis genes): -0.009
- CLEC5A log2FC (gene CLEC5A (23601), apoptosis genes): -0.012
- CLSPN log2FC (gene CLSPN (63967), apoptosis genes): 0.066
- CNTFR log2FC (gene CNTFR (1271), apoptosis genes): -0.014
- COL2A1 log2FC (gene COL2A1 (1280), apoptosis genes): 0.036
- COL4A3 log2FC (gene COL4A3 (1285), apoptosis genes): 0.173
- COMP log2FC (gene COMP (1311), apoptosis genes): -0.018
- log2FC (gene COPS5 (Gene 10987), cell cycle genes): 0.503
- log2FC (gene CRLF3 (Gene 51379), cell cycle genes): 0.438
- log2FC (gene CSNK2B (Gene 1460), cell cycle genes): -0.263
- CST3 log2FC (gene CST3 (1471), apoptosis genes): -0.001
- CTLA4 log2FC (gene CTLA4 (1493), apoptosis genes): -0.015
- CXCR4 log2FC (gene CXCR4 (7852), apoptosis genes): -0.044
- CYR61 log2FC (gene CYR61 (3491), apoptosis genes): -0.093
- DAPK2 log2FC (gene DAPK2 (23604), apoptosis genes): 0.127
- DAXX log2FC (gene DAXX (1616), apoptosis genes): 0.003
- log2FC DAXX (gene DAXX (Gene 1616), cell cycle genes): 0.003
- log2FC (gene DCLRE1B (Gene 64858), cell cycle genes): -0.240
- log2FC (gene DDX11 (Gene 1663), cell cycle genes): -0.382
- DDX47 log2FC (gene DDX47 (51202), apoptosis genes): 0.072
- DEDD2 log2FC (gene DEDD2 (162989), apoptosis genes): 0.036
- DFFB log2FC (gene DFFB (1677), apoptosis genes): -0.039
- log2FC (gene DIAPH2 (Gene 1730), cell cycle genes): 0.484
- log2FC DIRAS3 (gene DIRAS3 (Gene 9077), cell cycle genes): 0.0064
- DMPK log2FC (gene DMPK (1760), apoptosis genes): -0.105
- DNM2 log2FC (gene DNM2 (1785), apoptosis genes): -0.047
- DPF1 log2FC (gene DPF1 (8193), apoptosis genes): -0.079
- log2FC ECD (gene ECD (Gene 11319), cell cycle genes): -0.009
- EGR3 log2FC (gene EGR3 (1960), apoptosis genes): -0.131
- EGR4 log2FC (gene EGR4 (1961), apoptosis genes): -0.00345
- ELMO1 log2FC (gene ELMO1 (9844), apoptosis genes): 0.077
- EPB41L3 log2FC (gene EPB41L3 (23136), apoptosis genes): -0.033
